Data reported in ChEMBL document CHEMBL1201862, “PubChem BioAssay data set” (2004).
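Grown in 96-well plates, cells were treated for 48 hours with each compound at five concentrations. Insufficient inhibition: endpoint recorded as highest concentration tested. Here, GI50 denotes the concentration required for 50% inhibition of growth.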 Calls of active or inactive are those of the source. Cut-off read from the data, not from the text of the source: active = GI50 up to about 1.1 µM and inactive = higher. Where a SMILES comes first, the peptide text is derived from it. The star is where a group is joined. Fmoc = O=C(OCC1c2ccccc2-c2ccccc21)*; Boc = CC(C)(C)OC(=O)*

Key:
Assay in all cases: DTP human tumour cell line panel, 48 h
MCF7 = tested on: MCF7
SF-268 = tested on: SF-268
SF-539 = tested on: SF-539
COLO 205 = tested on: COLO 205
OVCAR-5 = tested on: OVCAR-5
CAKI-1 = tested on: CAKI-1
SN12C = tested on: SN12C
SK-MEL-28 = tested on: SK-MEL-28
OVCAR-3 = tested on: OVCAR-3
RXF 393 = tested on: RXF 393
SK-OV-3 = tested on: SK-OV-3
LOX IMVI = tested on: LOX IMVI
MDA-N = tested on: MDA-N
HOP-62 = tested on: HOP-62
MDA-MB-435 = tested on: MDA-MB-435
UACC-257 = tested on: UACC-257
786-0 = tested on: 786-0
SW-620 = tested on: SW-620
HCC 2998 = tested on: HCC 2998
DMS-273 = tested on: DMS-273

Measured: GI50

COc1cc(C=C2C(=O)NC(=S)NC2=O)cc(OC)c1OC
inactive: MCF7 > 100 µM | SF-268 > 100 µM | SF-539 > 100 µM | COLO 205 > 100 µM | OVCAR-5 > 100 µM | CAKI-1 > 100 µM | SN12C > 100 µM | SK-MEL-28 > 100 µM | OVCAR-3 > 100 µM | RXF 393 > 100 µM | SK-OV-3 > 100 µM | LOX IMVI > 100 µM | MDA-N > 100 µM | HOP-62 > 100 µM | MDA-MB-435 > 100 µM | UACC-257 > 100 µM | 786-0 > 100 µM | SW-620 > 100 µM | HCC 2998 > 100 µM

O=C(/C=N/O)Nc1cc(Cl)c(Cl)cc1Cl
inactive: MCF7 22.6 µM | SF-268 33.3 µM | SF-539 31.6 µM | COLO 205 26.8 µM | OVCAR-5 42.1 µM | CAKI-1 24.3 µM | SN12C 23.9 µM | SK-MEL-28 41 µM | OVCAR-3 24.4 µM | RXF 393 31.5 µM | SK-OV-3 27.8 µM | LOX IMVI 33.8 µM | MDA-N 27.7 µM | HOP-62 31.6 µM | MDA-MB-435 23 µM | UACC-257 26.6 µM | 786-0 37.4 µM | SW-620 35.7 µM | HCC 2998 26.6 µM

Cc1ccc(Cc2c(=O)[nH]nc3ccccc23)cc1
inactive: SF-268 > 100 µM | SF-539 > 100 µM | COLO 205 > 100 µM | OVCAR-5 > 100 µM | CAKI-1 > 100 µM | SN12C > 100 µM | SK-MEL-28 > 100 µM | OVCAR-3 > 100 µM | SK-OV-3 > 100 µM | LOX IMVI > 100 µM | HOP-62 > 100 µM | UACC-257 > 100 µM | 786-0 > 100 µM | SW-620 > 100 µM | HCC 2998 > 100 µM | DMS-273 > 100 µM

CCC1CC(C)=CCN1S(=O)(=O)c1ccc(C)cc1 (stereo unspecified)
inactive: SF-268 15.9 µM | SF-539 14.5 µM | COLO 205 16.5 µM | OVCAR-5 28 µM | CAKI-1 6.9 µM | SN12C 9.57 µM | OVCAR-3 17.4 µM | SK-OV-3 24.5 µM | LOX IMVI 15.9 µM | HOP-62 21.3 µM | UACC-257 25.9 µM | 786-0 33.5 µM | SW-620 > 10 µM | DMS-273 22 µM

CN/C(=N\C#N)N(Cc1ccccc1)Cc1ccccc1
inactive: SF-268 > 100 µM | SF-539 > 100 µM | COLO 205 > 100 µM | OVCAR-5 > 100 µM | CAKI-1 > 100 µM | SN12C > 100 µM | SK-MEL-28 > 100 µM | OVCAR-3 > 100 µM | SK-OV-3 > 100 µM | LOX IMVI > 100 µM | HOP-62 > 100 µM | UACC-257 > 100 µM | 786-0 > 100 µM | SW-620 > 100 µM | HCC 2998 > 100 µM | DMS-273 > 100 µM

O=C(Nc1ccc(Cl)cc1)C1C(=O)C(=O)N(c2ccc(Cl)cc2)C1=O (stereo unspecified)
inactive: SF-268 > 100 µM | SF-539 > 100 µM | COLO 205 > 100 µM | OVCAR-5 > 100 µM | CAKI-1 > 100 µM | SN12C 81.1 µM | SK-MEL-28 > 100 µM | OVCAR-3 > 100 µM | RXF 393 > 100 µM | SK-OV-3 > 100 µM | LOX IMVI > 100 µM | 786-0 > 100 µM | SW-620 > 100 µM | DMS-273 > 100 µM

C/C(CN1C(=O)c2ccccc2C1=O)=N\NS(=O)(=O)c1ccccc1
inactive: SF-268 > 100 µM | SF-539 > 100 µM | COLO 205 > 100 µM | OVCAR-5 > 100 µM | CAKI-1 > 100 µM | SN12C > 100 µM | SK-MEL-28 > 100 µM | OVCAR-3 > 100 µM | SK-OV-3 > 100 µM | LOX IMVI > 100 µM | HOP-62 > 100 µM | UACC-257 > 100 µM | 786-0 > 100 µM | SW-620 > 100 µM | HCC 2998 > 100 µM | DMS-273 > 100 µM

CCOC(=O)/C(=C/c1ccccc1)N(CC)CC
inactive: SF-268 > 100 µM | SF-539 > 100 µM | COLO 205 > 100 µM | OVCAR-5 > 100 µM | CAKI-1 > 100 µM | SN12C > 100 µM | SK-MEL-28 > 100 µM | OVCAR-3 > 100 µM | SK-OV-3 > 100 µM | LOX IMVI 94.4 µM | HOP-62 > 100 µM | UACC-257 > 100 µM | 786-0 > 100 µM | SW-620 > 100 µM | HCC 2998 > 100 µM | DMS-273 > 100 µM

CCOC(=O)CC(NC(=O)c1nc[nH]c1[N+](=O)[O-])C(=O)OCC (stereo unspecified)
inactive: SF-268 40.6 µM | SF-539 59.6 µM | COLO 205 49.2 µM | CAKI-1 47 µM | SN12C 42.5 µM | SK-MEL-28 > 100 µM | OVCAR-3 38.6 µM | SK-OV-3 > 100 µM | LOX IMVI 60.1 µM | HOP-62 46.7 µM | UACC-257 34.1 µM | 786-0 52 µM | SW-620 37.2 µM | HCC 2998 30.5 µM | DMS-273 40.6 µM

CCOC(=O)/C(O)=C(/C(=O)OC)c1ccc(Cl)cc1
inactive: SF-268 > 100 µM | SF-539 > 100 µM | COLO 205 > 100 µM | OVCAR-5 > 100 µM | CAKI-1 > 100 µM | SN12C > 100 µM | SK-MEL-28 > 100 µM | OVCAR-3 > 100 µM | SK-OV-3 > 100 µM | LOX IMVI > 100 µM | HOP-62 > 100 µM | UACC-257 > 100 µM | 786-0 > 100 µM | SW-620 > 100 µM | HCC 2998 > 100 µM | DMS-273 > 100 µM

O=c1ccn(/C=C/C(O)C(O)CO)c(=O)[nH]1 (stereo unspecified)
inactive: SF-268 > 100 µM | SF-539 > 100 µM | COLO 205 > 100 µM | OVCAR-5 > 100 µM | CAKI-1 > 100 µM | SN12C > 100 µM | SK-MEL-28 > 100 µM | OVCAR-3 > 100 µM | SK-OV-3 > 100 µM | LOX IMVI > 100 µM | HOP-62 > 100 µM | UACC-257 > 100 µM | 786-0 > 100 µM | SW-620 > 100 µM | HCC 2998 > 100 µM | DMS-273 > 100 µM

CC(C)(C)OC(=O)NCCCCC(NC(=O)C(Cc1c[nH]c2ccccc12)NC(=O)OCC1c2ccccc2-c2ccccc21)C(=O)O (stereo unspecified) (Fmoc-Trp-Lys(Boc)-OH; configuration not given here)
inactive: MCF7 22.9 µM | SF-268 32.5 µM | SF-539 42.3 µM | COLO 205 64.7 µM | OVCAR-5 > 100 µM | CAKI-1 17.1 µM | SN12C 52.2 µM | SK-MEL-28 26.3 µM | OVCAR-3 18.2 µM | RXF 393 59.4 µM | SK-OV-3 5 µM | LOX IMVI 21.6 µM | MDA-N 35.9 µM | HOP-62 39.5 µM | MDA-MB-435 49.5 µM | UACC-257 79.3 µM | 786-0 80 µM | SW-620 48.3 µM | HCC 2998 40.6 µM
